Several values for one entry are separate records, joined by “and”; a condition that tells them apart may be missing. Equal entries are not always repeated. Some results are limits rather than exact numbers.

Assay [1] concerns A/Perth/261/2009 (H1N1), H275Y mutation. The conditions noted are these: mouse, in vivo.
In assay [2] the target is neuraminidase of live influenza A (H3N2) viruses (Influenza A virus, UniProt D1FVK3, I119V). The assay is described as follows: biochemical.
In assay [3] the target is NA variants H275Y (H1N1), E119V and R292K (H3N2), R152K (B) (Influenza A virus (H3N2), UniProt D1FVK3, I119V). Put plainly: biochemical. It counts as biochemical.
Assay [4] has as its system NA variants H275Y (H1N1), E119V and R292K (H3N2), R152K (B). Put plainly: biochemical. It counts as biochemical, Influenza virus.
In assay [5] the test system is H1N1 H275Y (A/Texas/23/2012). It counts as cell-based, Influenza A virus.
Assay [6] deals with H3N2 E119V (A/Texas/12/2007). It counts as cell-based, Influenza A virus.
In assay [7] the test system is A/Perth/261/2009 (H1N1) H275Y. Set-up: species or system BALB/c mice. Particulars: mouse, in vivo.
Assay [8] concerns A/Texas/23/2012 (H1N1) H275Y. Further details: species or system BALB/c mice. Particulars: mouse, in vivo.

`CCOC(=O)C1=C[C@@H](OC(CC)CC)[C@H](NC(C)=O)[C@@H](N)C1` [Oseltamivir phosphate]: the “Median Survival” value in assay [1] came out at 7.
As to `CC(=O)N[C@H]1[C@H]([C@H](O)[C@H](O)CO)OC(C(=O)O)=C[C@@H]1N=C(N)N` [Zanamivir, zanamivir], the IC50 in assay [2] is 0.00309 µM; in assay [3], 0.0038 µM. The “Loss in potency against variants (up to)” value in assay [4] was > 10 fold. The 50% effective concentration (EC50) in assay [5] is 0.0938 µM; in assay [6], 0.074 µM.
With `CCOC(=O)C1=C[C@@H](OC(CC)CC)[C@H](NC(C)=O)[C@@H](N)C1` [Oseltamivir, oseltamivir], the “Loss in potency against variants (up to)” value in assay [4] is > 100 fold. Also, the Survival entry in assay [7] is recorded as “no survivors”. For the same compound, the “Percent Body Weight (grams)” value is 89% and 84% and 82% and 74% and 100% and 102% and 99% in assay [7] (po); 84% and 78% and 100% and 97% and 92% in assay [8]. Moreover, the EC50 in assay [5] and in assay [6] was > 0.1 µM in each case. Besides, the “Protection from lethal challenge” value in assay [8] is “failed to protect”. For the same compound, the “% Survival” value in assay [1] is recorded as 20%.

The values above are taken from patent US12427200B2 (priority 2019, dated 2025).
